# From ChEMBL document CHEMBL4387741, “Optimization of novel reversible Bruton's tyrosine kinase inhibitors identified using Tethering-fragment-based screens” (Bioorg Med Chem, 2019)
# Key:
# [1] = biological target: Mitogen-activated protein kinase kinase kinase 12 (Homo sapiens) (UniProt Q12852); assay: Inhibition of wild-type human full length DLK (M1 to P859 residues) expressed in mammalian expression system at 1 uM by Kinomescan method relative to control
# [2] = biological target: Calcium/calmodulin-dependent protein kinase type 1G (Homo sapiens) (UniProt Q96NX5); assay: Inhibition of wild-type human partial length CAMK1G (M1 to A342 residues) expressed in bacterial expression system at 1 uM by Kinomescan method relative to control
# [3] = Apparent permeability from apical to basolateral side in human Caco2 cells at 5 uM after 120 mins by LC-MS/MS analysis; assay type: ADME, cell-based; settings: Caco-2
# [4] = biological target: Inhibitor of nuclear factor kappa-B kinase subunit alpha (Homo sapiens) (UniProt O15111); assay: Inhibition of wild-type human full length IKK-alpha (M1 to E745 residues) expressed in mammalian expression system at 1 uM by Kinomescan method relative to control
# [5] = biological target: Aurora kinase C (Homo sapiens) (UniProt Q9UQB9); assay: Inhibition of wild-type human full length AURKC (M1 to S275 residues) expressed in bacterial expression system at 1 uM by Kinomescan method relative to control
# [6] = system: Receptor-type tyrosine-protein kinase FLT3 (Homo sapiens), P36888 [K663Q]; assay: Inhibition of human partial length FLT3 K663Q mutant (V592 to Y969 residues) expressed in bacterial expression system at 1 uM by Kinomescan method relative to control
# [7] = biological target: Ribosomal protein S6 kinase alpha-4 (Homo sapiens) (UniProt O75676); assay: Inhibition of wild-type human partial length C-terminal RPS6KA4 kinase domain 2 (M375 to T705 residues) expressed in mammalian expression system at 1 uM by Kinomescan method relative to control
# [8] = biological target: ALK tyrosine kinase receptor (Homo sapiens) (UniProt Q9UM73); assay: Inhibition of wild-type human partial length ALK (I1088 to E1409 residues) expressed in mammalian expression system at 1 uM by Kinomescan method relative to control
# [9] = biological target: Non-receptor tyrosine-protein kinase TYK2 (Homo sapiens) (UniProt P29597); assay: Inhibition of wild-type human partial length TYK2 JH2 pseudokinase domain (G556 to D888 residues) expressed in mammalian expression system at 1 uM by Kinomescan method relative to control
# [10] = biological target: Cyclin-dependent kinase 7 (Homo sapiens) (UniProt P50613); assay: Inhibition of wild-type human full length CDK7 (M1 to L344 residues) expressed in mammalian expression system at 1 uM by Kinomescan method relative to control
# [11] = biological target: Serine/threonine-protein kinase MRCK beta (Homo sapiens) (UniProt Q9Y5S2); assay: Inhibition of wild-type human partial length MRCKB (L56 to S417 residues) expressed in bacterial expression system at 10 uM by Kinomescan method relative to control
# [12] = system: Mast/stem cell growth factor receptor Kit (Homo sapiens), P10721 [L576P]; assay: Inhibition of human partial length KIT L576P mutant (Y545 to D952 residues) expressed in bacterial expression system at 10 uM by Kinomescan method relative to control
# [13] = biological target: Tyrosine-protein kinase ITK/TSK (Homo sapiens) (UniProt Q08881); assay: Inhibition of wild-type human partial length ITK (R335 to L620 residues) expressed in bacterial expression system at 10 uM by Kinomescan method relative to control
# [14] = biological target: Calcium/calmodulin-dependent protein kinase type II subunit gamma (Homo sapiens) (UniProt Q13555); assay: Inhibition of wild-type human partial length CAMK2G (R9 to A303 residues) expressed in bacterial expression system at 10 uM by Kinomescan method relative to control
# [15] = biological target: Phosphatidylinositol 3-kinase C2 domain-containing subunit gamma (Homo sapiens) (UniProt O75747); assay: Inhibition of wild-type human partial length PIK3C2G (M1 to I1446 residues) expressed in mammalian expression system at 10 uM by Kinomescan method relative to control
# [16] = biological target: Cyclin-dependent kinase 17 (Homo sapiens) (UniProt Q00537); assay: Inhibition of wild-type human full length PCTK2 (M1 to F523 residues) expressed in bacterial expression system at 10 uM by Kinomescan method relative to control
# [17] = biological target: Serine/threonine-protein kinase PAK 2 (Homo sapiens) (UniProt Q13177); assay: Inhibition of wild-type human partial length PAK2 (P151 to R525 residues) expressed in bacterial expression system at 10 uM by Kinomescan method relative to control
# [18] = biological target: Serine/threonine-protein kinase Nek5 (Homo sapiens) (UniProt Q6P3R8); assay: Inhibition of wild-type human partial length NEK5 (M1 to M279 residues) expressed in bacterial expression system at 10 uM by Kinomescan method relative to control
# [19] = biological target: Tyrosine-protein kinase JAK1 (Homo sapiens) (UniProt P23458); assay: Inhibition of wild-type human partial length JAK1 JH1 catalytic domain (V856 to K1154 residues) expressed in bacterial expression system at 10 uM by Kinomescan method relative to control
# [20] = biological target: Calcium/calmodulin-dependent protein kinase type 1B (Homo sapiens) (UniProt Q6P2M8); assay: Inhibition of wild-type human partial length CAMK1B (W9 to A311 residues) expressed in mammalian expression system at 10 uM by Kinomescan method relative to control
# [21] = biological target: Phosphorylase b kinase gamma catalytic chain, liver/testis isoform (Homo sapiens) (UniProt P15735); assay: Inhibition of wild-type human partial length PHKG2 (M1 to W300 residues) expressed in bacterial expression system at 10 uM by Kinomescan method relative to control
# [22] = biological target: Calcium/calmodulin-dependent protein kinase type II subunit alpha (Homo sapiens) (UniProt Q9UQM7); assay: Inhibition of wild-type human partial length CAMK2A (M1 to K328 residues) expressed in bacterial expression system at 10 uM by Kinomescan method relative to control
# [23] = biological target: Calcium/calmodulin-dependent protein kinase type 1D (Homo sapiens) (UniProt Q8IU85); assay: Inhibition of wild-type human partial length CAMK1D (M1 to K299 residues) expressed in bacterial expression system at 10 uM by Kinomescan method relative to control
# [24] = biological target: Activin receptor type-2A (Homo sapiens) (UniProt P27037); assay: Inhibition of wild-type human ACVR2A (V171 to T499 residues) expressed in bacterial expression system at 10 uM by Kinomescan method relative to control
# [25] = biological target: Insulin-like growth factor 1 receptor (Homo sapiens) (UniProt P08069); assay: Inhibition of wild-type human partial length IGF1R (L972 to D1294 residues) expressed in bacterial expression system at 10 uM by Kinomescan method relative to control
# [26] = biological target: Ephrin type-A receptor 7 (Homo sapiens) (UniProt Q15375); assay: Inhibition of wild-type human partial length EPHA7 (Y608 to S912 residues) expressed in bacterial expression system at 10 uM by Kinomescan method relative to control
# [27] = biological target: Serine/threonine-protein kinase 10 (Homo sapiens) (UniProt O94804); assay: Inhibition of wild-type human partial length LOK (E16 to V314 residues) expressed in bacterial expression system at 10 uM by Kinomescan method relative to control
# Serine/threonine-protein kinase PAK 2 (Homo sapiens), sequence (Q13177 whole entry, the tested form may be a part): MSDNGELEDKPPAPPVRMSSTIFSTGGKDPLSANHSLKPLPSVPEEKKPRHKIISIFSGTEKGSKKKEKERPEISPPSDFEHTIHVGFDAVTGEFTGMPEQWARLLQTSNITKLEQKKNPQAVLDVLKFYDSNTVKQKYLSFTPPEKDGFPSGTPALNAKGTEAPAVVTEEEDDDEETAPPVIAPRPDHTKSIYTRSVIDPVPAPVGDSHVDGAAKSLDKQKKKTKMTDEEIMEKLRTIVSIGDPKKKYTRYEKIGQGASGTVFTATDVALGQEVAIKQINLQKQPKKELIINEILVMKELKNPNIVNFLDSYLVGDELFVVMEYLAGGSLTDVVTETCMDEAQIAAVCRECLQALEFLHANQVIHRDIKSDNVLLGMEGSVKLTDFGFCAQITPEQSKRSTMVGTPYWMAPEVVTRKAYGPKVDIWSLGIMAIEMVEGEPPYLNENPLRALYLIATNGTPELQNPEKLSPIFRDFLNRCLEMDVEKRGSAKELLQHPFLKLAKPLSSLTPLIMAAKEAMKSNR
# Aurora kinase C (Homo sapiens), sequence (Q9UQB9 whole entry, the tested form may be a part): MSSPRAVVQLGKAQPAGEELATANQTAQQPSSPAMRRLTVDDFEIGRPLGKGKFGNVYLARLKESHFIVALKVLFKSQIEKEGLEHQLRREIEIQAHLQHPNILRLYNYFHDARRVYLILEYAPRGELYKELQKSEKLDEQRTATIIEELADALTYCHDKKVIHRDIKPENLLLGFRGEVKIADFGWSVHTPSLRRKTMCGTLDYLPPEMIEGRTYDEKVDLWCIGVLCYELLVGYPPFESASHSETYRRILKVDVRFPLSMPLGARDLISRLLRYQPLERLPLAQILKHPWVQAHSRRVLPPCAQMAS
# Serine/threonine-protein kinase Nek5 (Homo sapiens), sequence (Q6P3R8 whole entry, the tested form may be a part): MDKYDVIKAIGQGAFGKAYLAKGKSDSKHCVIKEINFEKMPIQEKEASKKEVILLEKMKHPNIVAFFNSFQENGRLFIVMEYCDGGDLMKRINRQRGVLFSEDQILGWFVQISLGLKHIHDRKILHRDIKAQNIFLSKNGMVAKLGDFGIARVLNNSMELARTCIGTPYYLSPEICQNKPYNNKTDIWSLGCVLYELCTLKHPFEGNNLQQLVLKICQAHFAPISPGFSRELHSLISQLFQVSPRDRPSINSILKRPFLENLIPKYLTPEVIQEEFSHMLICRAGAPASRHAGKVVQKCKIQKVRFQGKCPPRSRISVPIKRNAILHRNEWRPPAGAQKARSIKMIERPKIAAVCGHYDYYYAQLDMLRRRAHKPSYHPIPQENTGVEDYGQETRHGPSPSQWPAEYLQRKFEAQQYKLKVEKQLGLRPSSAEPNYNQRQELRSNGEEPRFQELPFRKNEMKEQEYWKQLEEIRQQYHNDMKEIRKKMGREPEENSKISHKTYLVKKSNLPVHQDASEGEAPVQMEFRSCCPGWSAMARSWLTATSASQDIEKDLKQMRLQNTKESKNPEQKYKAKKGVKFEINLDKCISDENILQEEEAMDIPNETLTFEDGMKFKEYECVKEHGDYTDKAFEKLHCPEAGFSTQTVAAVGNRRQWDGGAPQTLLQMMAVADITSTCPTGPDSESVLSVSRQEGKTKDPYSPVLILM
# Insulin-like growth factor 1 receptor (Homo sapiens), sequence (P08069 31-736 limits assumed): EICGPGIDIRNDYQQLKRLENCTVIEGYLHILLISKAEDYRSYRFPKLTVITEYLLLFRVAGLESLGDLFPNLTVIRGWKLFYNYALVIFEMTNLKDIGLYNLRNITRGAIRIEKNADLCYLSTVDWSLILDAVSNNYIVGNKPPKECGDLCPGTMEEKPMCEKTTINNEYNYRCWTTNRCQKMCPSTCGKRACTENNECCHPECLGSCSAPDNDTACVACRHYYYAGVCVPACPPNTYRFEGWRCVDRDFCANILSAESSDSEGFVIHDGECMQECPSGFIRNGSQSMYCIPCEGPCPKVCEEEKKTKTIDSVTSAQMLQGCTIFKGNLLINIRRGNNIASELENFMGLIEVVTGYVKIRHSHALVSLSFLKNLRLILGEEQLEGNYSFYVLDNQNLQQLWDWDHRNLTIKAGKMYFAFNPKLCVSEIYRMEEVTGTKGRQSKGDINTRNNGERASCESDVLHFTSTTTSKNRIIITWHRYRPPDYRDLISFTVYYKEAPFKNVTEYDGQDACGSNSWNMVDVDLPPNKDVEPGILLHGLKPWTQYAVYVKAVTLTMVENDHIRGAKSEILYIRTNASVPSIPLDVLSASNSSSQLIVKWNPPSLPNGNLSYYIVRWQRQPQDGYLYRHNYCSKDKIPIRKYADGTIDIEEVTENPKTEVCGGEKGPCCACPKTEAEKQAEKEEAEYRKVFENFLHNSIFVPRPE
# Insulin-like growth factor 1 receptor (Homo sapiens), sequence (P08069 741-1367 limits assumed): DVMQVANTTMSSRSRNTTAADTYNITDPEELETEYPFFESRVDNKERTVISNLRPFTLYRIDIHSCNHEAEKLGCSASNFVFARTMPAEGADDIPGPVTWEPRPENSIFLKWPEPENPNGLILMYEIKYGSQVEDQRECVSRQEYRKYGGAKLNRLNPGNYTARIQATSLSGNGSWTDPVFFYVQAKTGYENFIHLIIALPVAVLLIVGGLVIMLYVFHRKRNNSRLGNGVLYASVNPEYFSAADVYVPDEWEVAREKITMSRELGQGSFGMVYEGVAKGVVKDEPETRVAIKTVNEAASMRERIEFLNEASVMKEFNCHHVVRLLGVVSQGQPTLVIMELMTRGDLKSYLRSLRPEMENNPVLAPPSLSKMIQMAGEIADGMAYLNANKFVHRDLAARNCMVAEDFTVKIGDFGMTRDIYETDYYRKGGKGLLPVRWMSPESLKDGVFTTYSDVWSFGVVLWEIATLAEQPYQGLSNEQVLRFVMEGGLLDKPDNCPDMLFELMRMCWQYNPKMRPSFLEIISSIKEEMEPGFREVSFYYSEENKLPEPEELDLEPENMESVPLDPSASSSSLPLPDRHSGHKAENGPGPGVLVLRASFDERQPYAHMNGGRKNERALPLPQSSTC
# Calcium/calmodulin-dependent protein kinase type II subunit gamma (Homo sapiens), sequence (Q13555 whole entry, the tested form may be a part): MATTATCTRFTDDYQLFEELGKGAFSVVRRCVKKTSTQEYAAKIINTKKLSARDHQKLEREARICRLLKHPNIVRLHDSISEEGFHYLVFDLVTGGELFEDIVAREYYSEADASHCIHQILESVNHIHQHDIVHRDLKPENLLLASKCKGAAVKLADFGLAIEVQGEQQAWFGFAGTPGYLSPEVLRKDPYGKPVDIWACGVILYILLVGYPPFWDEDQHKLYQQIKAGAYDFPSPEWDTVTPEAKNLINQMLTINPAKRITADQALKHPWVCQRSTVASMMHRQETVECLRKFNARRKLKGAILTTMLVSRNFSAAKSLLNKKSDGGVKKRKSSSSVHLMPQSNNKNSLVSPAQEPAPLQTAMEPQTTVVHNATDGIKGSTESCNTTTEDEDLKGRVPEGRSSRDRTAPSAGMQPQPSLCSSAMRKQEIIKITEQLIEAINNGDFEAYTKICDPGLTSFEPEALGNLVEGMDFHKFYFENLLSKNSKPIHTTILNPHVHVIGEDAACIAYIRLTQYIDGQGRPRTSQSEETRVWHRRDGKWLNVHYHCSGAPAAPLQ
# Tyrosine-protein kinase ITK/TSK (Homo sapiens), sequence (Q08881 whole entry, the tested form may be a part): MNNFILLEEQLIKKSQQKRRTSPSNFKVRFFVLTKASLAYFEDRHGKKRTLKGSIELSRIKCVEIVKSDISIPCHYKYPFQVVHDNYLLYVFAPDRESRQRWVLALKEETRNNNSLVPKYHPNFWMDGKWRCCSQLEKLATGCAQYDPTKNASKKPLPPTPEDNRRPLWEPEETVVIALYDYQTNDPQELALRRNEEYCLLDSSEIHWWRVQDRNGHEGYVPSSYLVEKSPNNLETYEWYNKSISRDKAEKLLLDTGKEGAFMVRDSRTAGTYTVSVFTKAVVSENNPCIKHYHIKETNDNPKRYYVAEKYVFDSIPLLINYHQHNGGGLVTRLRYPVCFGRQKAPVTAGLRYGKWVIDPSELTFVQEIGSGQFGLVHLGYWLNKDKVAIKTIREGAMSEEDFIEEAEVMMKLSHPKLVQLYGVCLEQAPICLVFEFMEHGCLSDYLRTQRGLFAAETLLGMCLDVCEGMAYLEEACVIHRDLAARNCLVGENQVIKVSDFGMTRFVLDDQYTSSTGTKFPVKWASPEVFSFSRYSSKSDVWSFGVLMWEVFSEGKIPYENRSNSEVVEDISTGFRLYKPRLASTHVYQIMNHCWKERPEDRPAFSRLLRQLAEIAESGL
# Phosphorylase b kinase gamma catalytic chain, liver/testis isoform (Homo sapiens), sequence (P15735 whole entry, the tested form may be a part, canonical isoform): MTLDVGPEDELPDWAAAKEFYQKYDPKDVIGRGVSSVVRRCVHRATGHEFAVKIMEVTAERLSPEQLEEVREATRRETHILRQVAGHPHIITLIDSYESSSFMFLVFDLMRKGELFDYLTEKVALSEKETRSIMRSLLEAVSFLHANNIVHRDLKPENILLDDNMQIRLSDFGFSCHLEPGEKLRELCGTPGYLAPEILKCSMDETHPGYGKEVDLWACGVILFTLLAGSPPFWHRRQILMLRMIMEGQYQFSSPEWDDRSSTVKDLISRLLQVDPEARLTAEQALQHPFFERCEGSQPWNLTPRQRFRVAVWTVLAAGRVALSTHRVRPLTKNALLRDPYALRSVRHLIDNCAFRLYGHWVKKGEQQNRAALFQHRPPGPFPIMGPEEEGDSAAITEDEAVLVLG
# Calcium/calmodulin-dependent protein kinase type II subunit alpha (Homo sapiens), sequence (Q9UQM7 whole entry, the tested form may be a part): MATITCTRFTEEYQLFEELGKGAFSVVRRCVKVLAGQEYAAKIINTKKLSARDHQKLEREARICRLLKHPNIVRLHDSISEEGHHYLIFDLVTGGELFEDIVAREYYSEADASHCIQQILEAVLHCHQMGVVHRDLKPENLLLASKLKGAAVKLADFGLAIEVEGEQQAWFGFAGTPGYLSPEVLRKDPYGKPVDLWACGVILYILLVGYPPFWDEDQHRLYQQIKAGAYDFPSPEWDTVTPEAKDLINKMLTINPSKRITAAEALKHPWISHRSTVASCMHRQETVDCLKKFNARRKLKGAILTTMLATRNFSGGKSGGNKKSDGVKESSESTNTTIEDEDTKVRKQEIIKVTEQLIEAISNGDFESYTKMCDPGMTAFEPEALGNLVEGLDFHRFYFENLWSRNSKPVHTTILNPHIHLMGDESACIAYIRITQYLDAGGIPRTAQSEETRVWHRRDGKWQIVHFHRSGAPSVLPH
structure (smiles),measurement,setting,value
O=C(Nc1cccc([C@@H]2CN(c3ncnc4[nH]ccc34)CCN2CCO)c1)Nc1c(F)cccc1N1CCCC1,inhibition,[1],79%
same,inhibition,[2],100%
same,"Papp A→B at 2 h, 5 µM",[3],4 ×10⁻⁶ cm/s
same,inhibition,[4],78%
same,inhibition,[5],33%
same,inhibition,[6],42%
same,inhibition,[7],97%
same,inhibition,[8],98%
same,inhibition,[9],71%
same,inhibition,[10],100%
O=C(Nc1cccc([C@H]2CCCN(c3ncnc4[nH]ccc34)C2)c1)Nc1ccccc1N1CCCC1,inhibition,[11],90%
same,inhibition,[12],0.2%
same,inhibition,[13],7%
same,inhibition,[14],94%
same,inhibition,[15],89%
same,inhibition,[16],97%
same,inhibition,[17],88%
same,inhibition,[18],100%
same,inhibition,[19],29%
same,inhibition,[20],46%
same,inhibition,[21],83%
same,inhibition,[22],77%
same,inhibition,[23],54%
same,inhibition,[24],100%
same,inhibition,[25],100%
same,inhibition,[26],72%
same,inhibition,[27],0.45%
